In patent US6747036B2, “Methods of treating leukemia” (BioChem Pharma Inc., priority 1999, dated 2004):

Columns and labels:
[1] = test system: advanced leukemia; experiment: Evaluation of β-L-oddC in patients with advanced leukemia previously treated with Ara-C; assay type: in vivo, human; details: twelve patients treated; 30 min daily infusion for 5 consecutive days; responders 2 each at 1.08 and 1.62 mg/m2; three AML, one CML
Description: Evaluation of β-L-oddC in Patients with Advanced Leukemia.
The study involved treatment of patients with advanced leukemia that had been previously treated with Citarabine (Ara-C). […] Twelve patients were treated with an initial course at daily doses of 0.72 mg/m2 (4 patients), 1.08 mg/m^2 (5 patients), 1.62 mg/m^2 (3 patients) given as a daily infusion over 30 minutes for 5 consecutive days. Five patients were treated with second courses at daily doses of 1.08 mg/m^2 (3 patients), 1.62 mg/m^2 (2 patients) given over 5 consecutive days as above. 1 patient was treated with a 3rd 5 day course at the 2.43 mg/m^2 daily dose level. 4 patients (2 each at the 1.08 mg/m^2 and 1,62 mg/m^2 levels) have shown a transient decrease in peripheral blood and bone marrow blasts. Of these four patients, three had acute mylogenous leukemia and one had chronic mylogenous leukemia.

[2] = test system: Human Leukemia (HL60) xenograft; experiment: β-L-OddC/doxorubicin combination study in a human leukemia (HL60) xenograft survival model; assay type: in vivo, female SCID mice; details: start day 10
Description: β-L-OddC/doxorubicin Combination Study in a Human Leukemia (HL60) Xenograft Model
A study was conducted to evaluate the synergistic or additive therapeutic effect of β-L-OddC in combination with the currently known anticancer agent Doxorubicin. The model that was utilized is a survival model consisting of female SCID mice which are inoculated in the abdomen region (i.p.) with 15×10^6 HL60 cells in log phase growth. This corresponds to day 0 of the experiment. Administration of anti-cancer drug is started 10 days after tumor cell inoculation.
10 animals were used per group for β-L-oddC alone, Doxorubicin alone and the combination of β-L-oddC with Doxorubicin. Each groups received the drugs alone or in combination intraperitoneal once daily for 5 consecutive days.
Augmentation of survival time was calculated by substracting from the median survival time of group two to six, which corresponds to the day when the fifth mouse dies, the median survival time of control group 1 and multiplying by 100.

SMILES | patients showing a transient decrease in peripheral blood and bone marrow blasts [1] | Augmentation Survival Time ([2]; β-L-OddC 1 mg/kg i.p. once daily for 5 days) | Augmentation Survival Time ([2]; Doxorubicin 0.2 mg/kg i.p. once daily for 5 days) | Augmentation Survival Time ([2]; Doxorubicin 2 mg/kg i.p. once daily for 5 days)
Nc1ccn([C@@H]2CO[C@H](CO)O2)c(=O)n1 [β-L-OddC, (−)-β-L-Dioxolane-Cytidine] | 4 patients | 55% | – | –
COc1cccc2c1C(=O)c1c(O)c3c(c(O)c1C2=O)C[C@@](O)(C(=O)CO)C[C@@H]3O[C@H]1C[C@H](N)[C@H](O)[C@H](C)O1 [Doxorubicin] | – | – | 25% | 50%
